# Measurements taken from patent US9308238B2, “Compositions and methods for modulating EMT and uses thereof” (Whitehead Institute for Biomedical Research, priority 2010, dated 2016).
# B1: SFRP1: Recombinant human SFRP1 protein (R&D Systems), secreted decoy receptor binding canonical and non-canonical Wnt ligands (protein, UniProt Q8N474 32-314, looked up)
# Secreted frizzled-related …: SEYDYVSFQSDIGPYQSGRFYTKPPQCVDIPADLRLCHNVGYKKMVLPNLLEHETMAEVKQQASSWVPLLNKNCHAGTQVFLCSLFAPVCLDRPIYPCRWLCEAVRDSCEPVMQFFGFYWPEMLKCDKFPEGDVCIAMTPPNATEASKPQGTTVCPPCDNELKSEAIIEHLCASEFALRMKIKEVKKENGDKKIVPKKKKPLKLGPIKKKDLKKLVLYLKNGADCPCHQLDNLSHHFLIMGRKVKSQYLLTAIHKWDKKNKEFKNFMKKMKNHECPTFQSVFK
# Assays:
# Format in all cases: cell-based, human
# [1] = tested on: luminal MECs; assay: Migration assay, primary luminal cells after pre-treatment; details: 5-day treatment
# Description: (§1) FIGS. 7A-7G. Migratory and self-renewal properties in primary MECs: inhibition and induction. (FIG. 7A) Mammosphere Assay: microscopy images of mammospheres and quantification of mammosphere formation by purified basal, luminal and unsorted MEC populations. Primary spheres were allowed to form over a period of 7 days, dissociated and seeded for secondary sphere formation, n(mammosphere)/1000 cells, n=48, (FIG. 7B) Migration Assay: microscopy images of migrated cells in Boyden Chambers and quantification, n=6. (FIG. 7C) Mammosphere Assay: basal cells were seeded into assay after a 5 day pre-treatment with TGF-beta inhibitors A83-01 and […] (SB43, both inhibitors at 10 μM) as well as recombinant SFRP1 (1 μg/ml), n(mammospheres)/1000 cells, n=6. (FIG. 7D) Migration Assay: basal cells were seeded into migration assays treated after 5 day pre-treatment as described in (C), n=24. (FIG. 7E) Mammosphere Assay: luminal cells were seeded into the assay following a 5 day pre-treatment with TGF-beta 1 (5 ng/ml), Wnt5a (250 ng/ml), anti-E-Cadherin antibody (1 μg/ml) plus anti-DKK1 antibody (10 μg/ml), and a cocktail of all factors added together (iEMT-II), n(mammospheres)/1000 cells, n=24. (FIG. 7F) Migration Assay: luminal cells were seeded into Boyden Chambers following a 5 day pre-treatment as described in (E), n=6. […]
# [2] = tested on: luminal MECs; assay: Growth curve of luminal cells in monolayers; details: luminal cultures
# Protocol: FIGS. 14A-14D. Modulation of migratory and self-renewal abilities in basal and luminal MECs. (FIG. 14A) Growth curve: basal cells treated every 48 hrs with indicated factors, TGF-beta-type 1 receptor inhibitors A83-01 and SB431542 (10 μM), SFRP1 (1 μg/ml); cells were counted at indicated time points, n=2. (FIG. 14B) Growth curve: luminal cells treated every 48 hrs with indicated factors, TGF-beta 1 (5 ng/ml), Wnt5a (250 ng/ml), anti-DKK1-(10 μg/ml) and anti-E-Cadherin antibodies (1 μg/ml) or a combination of all factors (iEMT-II); cells were counted at indicated time points, n=2, (FIG. 14C) Microscopy images of basal cells treated as described in (A), at 4 days/before first passage. (FIG. 14D) Microscopy images of luminal cells treated as described in (B), at 4 days/before first passage.
# Primary mammary epithelial cell culture. Single-cell suspensions of primary human mammary epithelial cells (MECs) were generated from reduction mammoplasties of pre-menopausal women as previously described (Stingl et al., 2001), Data from three donors are included in this study. Primary MECs were cultured on collagen I-coated plates (Millipore) in MEGM medium (Lonza) supplemented with 1% Fetal Bovine Serum in a humidified 4% O2, 5% CO2, atmosphere.
# [3] = tested on: Smad transcriptional activity; assay: Smad luciferase reporter assay (SBE4-luc), HMLE^24+ cells; details: HMLE^24+ cells treated with TGF-beta (5 ng/ml, 30 min)
# Description: FIGS. 12A-12F. Concomitant stimulation of Wnt and TGF-beta pathways allows HMLE^24+ cells to enter into a mesenchymal and SC-like state. (FIG. 12A) RT-PCR: SFRP1, L32 was loading control, n=3; SFRP1 mRNA levels in HMLE^24+ stably expressing two hairpin-encoding vectors (shSFRP1a and -b) compared cells expressing a control hairpin targeting GFP (shGFP), HMLE^24+-shSFRP1b were used for iEMT experiments. (FIG. 12B) Flow cytometry: Expression of CD44 and CD24 cell-surface markers in HMLE, HMLE^24+-shGFP and -shSFRP1 cells. […] (FIG. 12F) Growth curves: proliferation of indicated cell lines was monitored by the MTS assay for 3 days, 8 passages after cessation of 14 day treatment as described in (D), n=12.
# Luciferase assays. […] Lysates were collected 24-48 hr after transfection, and firefly and Renilla luciferase activities were measured with a Dual-Luciferase Reporter System (Promega).
# [4] = tested on: luminal MECs; assay: Mammosphere assay, primary luminal cells after pre-treatment; details: 5-day treatment
# Description: as §1
# [5] = tested on: basal MECs; assay: Migration assay, primary basal cells after pre-treatment; details: 5 day pre-treatment
# Description: as §1
Molecule,increase in motile cells [1],proliferation in monolayers [2],upregulation of Smad-reporter activity [3],increase in mammosphere-forming cells / efficiency [4],reduction of motility [5]
"TGF-beta 1: recombinant TGF-beta 1 protein, used at 5 ng/ml",8 fold,significantly reduced,1.5 fold,3 fold,–
B1,–,–,–,–,3 fold
